From US9855273B2, “Combination therapy for MDS” (priority 2013, dated 2018)

How the values were obtained:
MDSL cells = test: MDSL xenograft, cells pre-treated in vitro, NSGS mice; type: in vivo; settings: MDSL treated in vitro with IRAK-Inh 10 μM and/or ABT-263 0.1 μM; DMSO 28 days
Protocol: Xenograftment of NOD/SCID-IL2Rγ(NSG) and NSG-hSCF/hGM-CSF/hIL3 (NSGS) MDSL cells (1×10^6-5×10^6) were injected into the tail veins of 8-week old sublethally irradiated ([…]) NSG or NSG animals engineered to express human SCF, GM-CSF, and IL3 (NSGS) as previously described (Wunderlich et al., 2010). Mice were monitored by performing complete blood counts (Drew Hemavet 950FS). Following red cell lysis, human MDSL cells were identified by hCD45-FITC staining. In vivo delivery of IRAK-Inh approach is adapted from previous reports (Yang et al., 2011): IRAK-Inh was diluted in DMSO (5 mM) and further dissolved in sterile phosphate buffered saline (PBS; pH 7.2). Animals were injected i.p. with 2.12 mg/kg IRAK-Inh 3× weekly.
To determine whether IRAK-Inh can delay human MDS-like disease in vivo, MDSL were pre-treated with IRAK-Inh (10 μM) for 24 hrs in vitro and subsequently injected intravenously (i.v.) into NSG (5×10^6 cells) and NSGS (1×10^6 cells) recipient mice (FIG. 4A). This approach permitted us to evaluate the cell autonomous effect of IRAK-Inh on MDS cell viability and engraftment without altering endogenous IRAK1 function in the mouse.
Moreover, we investigated whether combined IRAK1 and BCL2 inhibition could delay human MDS-like disease in vivo. MDSL cells were treated with IRAK-Inh (10 μM) and/or ABT-263 (0.1 μM) for 48 hrs in vitro and subsequently injected i.v. into NSGS mice (FIG. 4A).

[1] = system: MDS/AML cell lines (MDSL, TF1, THP1, HL60); test: Viable cell growth (trypan blue exclusion) of MDS/AML cell lines; type: cell-based, human; settings: IRAK-Inh 10 μM, ABT-263 0.1 μM
Protocol: Acute myeloid leukemic cell lines, HL60, THP1, and TF-1 were purchased from the American Type Culture Collection. MOLM13 were purchased from AddexBio. The myelodysplastic cell line, MDS-L, was provided by Dr. Kaoru Tohyama (Kawasaki Medical School, Okayama, Japan) (Matsuoka et al., 2010). […] Additionally, both the MDSL and TF-1 cell lines were cultured in the presence of 10 ng/mL human recombinant IL-3 (Stemcell Technologies).

normal CD34+ cells = test: Colony formation in methylcellulose, normal CD34+ cells; settings: individual or combination treatment
Protocol: The effect of IRAK-Inh on leukemic progenitor function was evaluated in methylcellulose containing IRAK-Inh. […] As an alternative approach, MDS/AML cells were pre-treated with IRAK-Inh for 24 hours and then plated in methylcellulose.

CC1(C)CCC(c2ccc(Cl)cc2)=C(CN2CCN(c3ccc(C(=O)NS(=O)(=O)c4ccc(N[C@H](CCN5CCOCC5)CSc5ccccc5)c(S(=O)(=O)C(F)(F)F)c4)cc3)CC2)C1 [ABT-263]
median survival (MDSL cells): ~35 days
sensitivity of HL60 cells ([1]; HL60, alone or combined): refractory
MDS/AML cell line growth and survival ([1]; alone or co-treatment): modest effects
viability and hematopoietic progenitor function of normal CD34+ cells (normal CD34+ cells): not affected
